Experimental data from PMC11289669, “BAR502/fibrate conjugates: synthesis, biological evaluation and metabolic profile” (Frontiers in Chemistry, 2024).
“And” between values parts separate entries of the source, which are not always exact repeats. Equal entries are not always repeated.

Assays:
[1] = target: T1, PPARα (Homo sapiens, UniProt Q07869); assay: AlphaScreen coactivator (SRC-1) recruitment assay on PPARα; format: biochemical; details: AlphaScreen SRC-1 recruitment; compounds at 50 µM (footnote); fenofibrate = 100%
T1 construct: 20 nM PPARα LBD GST fused (Thermo Scientific); purchased Thermo Scientific
T1 sequence (Q07869 239-466 limits assumed): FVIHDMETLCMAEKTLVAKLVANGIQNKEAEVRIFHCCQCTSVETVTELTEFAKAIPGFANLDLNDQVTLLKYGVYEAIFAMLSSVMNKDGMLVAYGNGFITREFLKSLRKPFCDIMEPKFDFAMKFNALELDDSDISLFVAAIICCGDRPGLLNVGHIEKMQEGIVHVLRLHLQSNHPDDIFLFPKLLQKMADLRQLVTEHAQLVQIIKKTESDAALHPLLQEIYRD
Protocol: Compounds’ ability to mediate cofactor recruitment was evaluated by employing AlphaScreen GST Detection Kit (PerkinElmer). Particularly, FXR agonism was evaluated employing 10 nM FXR-LBD GST-fused (Thermo Scientific) and 30 nM of biotinylated SRC1 peptide ([…]) in the presence of 20 μg/mL donor and acceptor beads and in buffer containing 50 mM Tris-HCl (pH7.4), 20 mM KCl, 1 mM DTT, and 0.1% BSA. For PPARα assay, a buffer containing 50 mM MOPS, 50 mM NaF, 0.05 mM CHAPS, and 0.05% BSA (pH = 7.4) was used, and 20 nM PPARα LBD GST fused (Thermo Scientific) and 60 nM of biotinylated SRC1 peptide were employed. Both acceptor and donor beads were added to reach 20 μg/mL final concentration. Incubations were performed in a final volume of 25 μL employing 384 wells Optiplate and Alpha signal was measured with Envision 2,105 (Perkin Elmer) multimode plate reader. […]

[2] = target: T2, GPBAR1 (Homo sapiens, UniProt Q8TDU6); assay: GPBAR1 transactivation (CRE-luciferase reporter) assay in HEK-293T cells; format: cell-based; details: for Emax: 18 h, read-out: GPBAR1 efficacy (% vs. TLCA); for Emax / GPBAR1 efficacy (% vs. TLCA): transactivation on HEK-293T cells, TLCA 10 μM = 100%; for EC50: transactivation assay, HEK-293T cells
T2 construct: expressed in transfected cells; host or cells: HEK-293T
T2 sequence (Q8TDU6 1-330): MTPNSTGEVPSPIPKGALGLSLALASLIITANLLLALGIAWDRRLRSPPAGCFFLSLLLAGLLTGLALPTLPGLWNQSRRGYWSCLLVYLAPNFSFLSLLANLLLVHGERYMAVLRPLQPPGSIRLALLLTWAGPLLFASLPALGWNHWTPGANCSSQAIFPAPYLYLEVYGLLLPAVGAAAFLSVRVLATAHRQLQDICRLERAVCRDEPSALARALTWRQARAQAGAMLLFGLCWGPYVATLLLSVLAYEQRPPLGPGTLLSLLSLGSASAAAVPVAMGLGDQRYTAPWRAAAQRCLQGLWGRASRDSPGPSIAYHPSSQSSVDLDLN
Protocol: (§1) HepG2 and HEK-293T cells were cultured at 37 °C in minimal essential medium (MEM) and Dulbecco’s Modified Eagle Medium (DMEM) respectively, supplemented with 10% fetal bovine serum, 1% L-glutamine, 100 U/mL penicillin, and 100 μg/mL streptomycin. To investigate FXR-mediated transactivation, the HepG2 cells were transfected with 200 ng of the reporter vector p (hsp27)TK-Luc containing the FXR response element IR1 cloned from the promoter of heat shock protein 27 (hsp27), plus 100 ng pSG5-FXR, 100 ng pSG5-RXR, and 100 ng pGL4.70 Renilla. To evaluate GPBAR1 mediated transactivation, HEK-293T cells were transfected with 200 ng of human pGL4.29 (Promega), a reporter vector containing a cAMP response element (CRE) that drives the transcription of the luciferase reporter gene luc2P, with 100 ng of pCMVSPORT6-human GPBAR1, and with 100 ng of pGL4.70. At 24 h post-transfection, cells were stimulated 18 h with 10 μM TLCA (taurolithocholic acid a GPBAR1 agonist) or CDCA (FXR agonist) and compounds. To calculate the EC50 on FXR and GPBAR1, dose-response curves were performed in HEK-293T cells transfected as described above and then treated with increasing concentrations of compounds (from 0.1 to 50 µM). After treatments, cells were lysed in 100 μL of lysis buffer (25 mM Tris-phosphate, pH 7.8; 2 mM DTT; 10% glycerol; 1% Triton X-100), and 10 μL of cellular lysate was assayed for luciferase activity using the Firfly &Renilla Luciferase assay kit (Biotium). Luminescence was measured using Glomax 20/20 luminometer (Promega). Luciferase activities were assayed and normalized with Renilla activities.

[3] = target: T3, FXR (Homo sapiens, UniProt Q96RI1); assay: FXR transactivation (luciferase reporter) assay in HepG2 cells; format: cell-based; details: for EC50: HepG2 cells
T3 construct: expressed in transfected cells; host or cells: HepG2 (the text says EC50 dose-response curves were run in HEK-293T)
T3 sequence (Q96RI1 1-486): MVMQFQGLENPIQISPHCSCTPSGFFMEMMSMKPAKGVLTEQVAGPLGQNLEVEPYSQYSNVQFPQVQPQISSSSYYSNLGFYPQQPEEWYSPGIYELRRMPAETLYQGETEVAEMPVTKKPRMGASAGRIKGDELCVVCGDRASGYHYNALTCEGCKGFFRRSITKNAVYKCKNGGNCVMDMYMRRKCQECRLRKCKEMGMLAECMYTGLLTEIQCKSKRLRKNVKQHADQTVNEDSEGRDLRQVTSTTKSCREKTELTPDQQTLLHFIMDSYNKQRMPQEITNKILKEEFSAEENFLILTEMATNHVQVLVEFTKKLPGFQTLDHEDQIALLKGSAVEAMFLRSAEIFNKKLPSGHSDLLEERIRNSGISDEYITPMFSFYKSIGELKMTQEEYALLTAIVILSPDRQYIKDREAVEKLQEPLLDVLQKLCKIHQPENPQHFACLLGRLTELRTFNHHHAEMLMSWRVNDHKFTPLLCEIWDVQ
T3 sequence (P19793 1-462 partner): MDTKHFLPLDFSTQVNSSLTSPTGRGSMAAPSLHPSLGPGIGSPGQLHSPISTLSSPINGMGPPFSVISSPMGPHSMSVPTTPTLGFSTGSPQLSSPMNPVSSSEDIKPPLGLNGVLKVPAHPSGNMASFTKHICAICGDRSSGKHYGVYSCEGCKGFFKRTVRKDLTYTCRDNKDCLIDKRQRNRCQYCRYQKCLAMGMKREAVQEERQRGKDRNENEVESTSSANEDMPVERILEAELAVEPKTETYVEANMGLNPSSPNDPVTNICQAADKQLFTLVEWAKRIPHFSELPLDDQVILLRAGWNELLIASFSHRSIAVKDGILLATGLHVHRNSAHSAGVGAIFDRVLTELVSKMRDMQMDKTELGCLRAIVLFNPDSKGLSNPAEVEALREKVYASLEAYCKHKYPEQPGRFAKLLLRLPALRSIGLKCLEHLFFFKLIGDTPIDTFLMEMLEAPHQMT
Protocol: as §1

[4] = target: T4, FXR (Homo sapiens, UniProt Q96RI1); assay: AlphaScreen coactivator (SRC-1) recruitment assay on FXR; format: biochemical; details: for FXR efficacy (% vs. CDCA): AlphaScreen SRC-1 recruitment, compounds at 10 μM, CDCA = 100%
T4 sequence (Q96RI1 262-486 limits assumed): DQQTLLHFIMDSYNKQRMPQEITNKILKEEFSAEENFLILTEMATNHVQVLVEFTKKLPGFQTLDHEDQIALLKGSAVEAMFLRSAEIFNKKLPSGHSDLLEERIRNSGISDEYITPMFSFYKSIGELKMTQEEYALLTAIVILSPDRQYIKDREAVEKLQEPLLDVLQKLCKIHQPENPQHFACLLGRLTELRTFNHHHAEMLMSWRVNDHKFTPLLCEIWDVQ
Protocol: Compounds’ ability to mediate cofactor recruitment was evaluated by employing AlphaScreen GST Detection Kit (PerkinElmer). Particularly, FXR agonism was evaluated employing 10 nM FXR-LBD GST-fused (Thermo Scientific) and 30 nM of biotinylated SRC1 peptide ([…]) in the presence of 20 μg/mL donor and acceptor beads and in buffer containing 50 mM Tris-HCl (pH7.4), 20 mM KCl, 1 mM DTT, and 0.1% BSA. For PPARα assay, a buffer containing 50 mM MOPS, 50 mM NaF, 0.05 mM CHAPS, and 0.05% BSA (pH = 7.4) was used, and 20 nM PPARα LBD GST fused (Thermo Scientific) and 60 nM of biotinylated SRC1 peptide were employed. Both acceptor and donor beads were added to reach 20 μg/mL final concentration. Incubations were performed in a final volume of 25 μL employing 384 wells Optiplate and Alpha signal was measured with Envision 2,105 (Perkin Elmer) multimode plate reader. For efficacy, compounds were tested at 10 μM for FXR and 50 μM for PPARα.

| Compound | PPARα efficacy (% vs. fenofibrate) [1] [%] | Emax [2] [%] | EC50 [2] [nM] | GPBAR1 efficacy (% vs. TLCA) [2] [%] | FXR efficacy vs. CDCA (transactivation) [3] [%] | EC50 [3] [µM] | FXR efficacy (% vs. CDCA) [4] | EC50 ([4]; AlphaScreen coactivator recruitment, FXR with SRC-1) [µM] |
| --- | --- | --- | --- | --- | --- | --- | --- | --- |
| CC[C@@H]1C2C[C@H](OC(=O)C(C)(C)CCCOc3cc(C)ccc3C)CC[C@]2(C)C2CC[C@@]3(C)C(CC[C@@H]3[C@H](C)CCO)C2[C@@H]1O (stereo partly drawn) [Compound 8] | 5.3 ± 0.8 | 29.4 ± 5.1 |  |  |  |  |  |  |
| CCC1C(O)C2C3CCC(C(C)CC(=O)O)C3(C)CCC2C2(C)CCC(O)CC12 (stereo not drawn) [BAR505, reference compound] | 40 |  | 3200 ± 1100 | 103.6 | 457 | 1.9 ± 0.14 |  |  |
| CC[C@@H]1C2C[C@H](OC(=O)C(C)(C)Oc3ccc(Cl)cc3)CC[C@]2(C)C2CC[C@@]3(C)C(CC[C@@H]3[C@H](C)CCOC(=O)C(C)(C)Oc3ccc(Cl)cc3)C2[C@@H]1O (stereo partly drawn) [Compound 3] | 27 ± 10 | 101 | 1800 ± 350 | 101.0 ± 0.4 |  | 25 ± 0.01 | 48% and 48.0 ± 5.5% | 17.9 ± 2.6 |
| CC[C@@H]1C2C[C@H](OC(=O)C(C)(C)Oc3ccc(Cl)cc3)CC[C@]2(C)C2CC[C@@]3(C)C(CC[C@@H]3[C@H](C)CCO)C2[C@@H]1O (stereo partly drawn) [Compound 2] |  | 46 ± 16 |  |  |  |  |  |  |
| CC[C@@H]1C2C[C@H](OC(=O)C(C)(C)Oc3ccc(C(=O)c4ccc(Cl)cc4)cc3)CC[C@]2(C)C2CC[C@@]3(C)C(CC[C@@H]3[C@H](C)CCO)C2[C@@H]1O (stereo partly drawn) [Compound 5] | 6.6 ± 1.9 | 40 ± 0.7 |  |  |  |  |  |  |
| CC[C@@H]1C2C[C@H](OC(=O)C(C)(C)CCCOc3cc(C)ccc3C)CC[C@]2(C)C2CC[C@@]3(C)C(CC[C@@H]3[C@H](C)CCOC(=O)C(C)(C)CCCOc3cc(C)ccc3C)C2[C@@H]1O (stereo partly drawn) [Compound 9] |  | 28.5 ± 0.4 |  |  |  |  | 5.1 ± 1.9% |  |
| CC[C@@H]1C2C[C@H](O)CC[C@]2(C)C2CC[C@@]3(C)C(CC[C@@H]3[C@H](C)CCOC(=O)C(C)(C)CCCOc3cc(C)ccc3C)C2[C@@H]1O (stereo partly drawn) [Compound 7] | 22 ± 18 | 14 ± 1.3 |  |  |  |  | 4.1 ± 0.6% |  |
| CC[C@@H]1C2C[C@H](O)CC[C@]2(C)C2CC[C@@]3(C)C(CC[C@@H]3[C@H](C)CCOC(=O)C(C)(C)Oc3ccc(C(=O)c4ccc(Cl)cc4)cc3)C2[C@@H]1O (stereo partly drawn) [Compound 4] | 13 ± 3 | 41 ± 3 |  |  |  |  | 14.0 ± 1.8% |  |
| CC[C@@H]1C2C[C@H](OC(=O)C(C)(C)Oc3ccc(C(=O)c4ccc(Cl)cc4)cc3)CC[C@]2(C)C2CC[C@@]3(C)C(CC[C@@H]3[C@H](C)CCOC(=O)C(C)(C)Oc3ccc(C(=O)c4ccc(Cl)cc4)cc3)C2[C@@H]1O (stereo partly drawn) [Compound 6] | 1.7 ± 0.5 | 30 ± 17 |  |  |  |  |  |  |
